# Legend:
# Type in all cases: in vivo
# IL-1β = assay: Level of inflammatory factor IL-1β in brain and peripheral tissues of zebrafish
# Experimental: (§1) 75 zebrafish (3.0±0.4 cm) are randomly classified into control group, AlCl3 model group and 3 experimental groups with 15 zebrafish in each group, zebrafish in the experimental group are fed with food with butyrolactone-I content of 25 mg/kg, 50 mg/kg and 100 mg/kg for 20 days. zebrafish in control group and model group are fed the same amount of normal food respectively. 20 days later, after anesthesia, zebrafish in model group and experimental group are injected with AlCl3 solution (4.2 mg/mL, 5μL, pH=5.0±0.2) intraperitoneally, while zebrafish in the control group are injected with the same amount of normal saline. Memory test is performed in T maze 24 hours after injection.
# (§2) 24 hours after the behavior test, the fish are euthanized, and every five fish in each group is a sample. The brain, surrounding tissues and intestines are collected and stored in a refrigerator at −80° C. All samples (except intestinal tract) are homogenized in phosphate buffer solution for further analysis. Centrifuging is conducted at 4° C. for 15 min at 1500 r/min, and the supernatant is collected. The changes of GSH level and AChE activity of tissue biomarkers are detected by using brain supernatant of zebrafish. In addition, brain samples and supernatant of peripheral tissues of zebrafish are used to determine the levels of IL-1β and TNF-α. The results are expressed by the activity of AChE per gram of protein and the amount of glutathione per gram of protein. According to OD value, the regression equation of IL-1β and TNF-α standard curves is calculated, and the logistic curve (4 parameters each) is used as a fitting model.
# Graphpad Prism 8.0 is used for mapping, and One-way ANOVA and Dunnett's post hoc test are used to evaluate the differences between model group and control group, experimental group and model group.
# zebrafish = assay: T maze memory test in AlCl3-injected zebrafish
# Experimental: Adult wild AB zebrafish (male: female ratio is 50%: 50%) with good growth of about 6-8 months are acclimated in a 50 L water tank for 2 weeks, the temperature is 25±2° C., the light-dark cycle is 14 hours: 10 hours, and Artemia larvae are fed at 9 am and 2 pm respectively.
# as §1
# 4 days before intraperitoneal injection, 6 fish are randomly selected from each group, and each day, they are trained separately in T maze for 5 minutes to find the eutrophic EC area. […] After 4 days of training, on the 5th day (24 hours after intraperitoneal injection), the behavior of the trained fish is tested in T maze. If the fish enters EC area and stays for more than 30 s, a valid incubation period is recorded. […] The behavioral test is conducted between 10 am and 1 pm. The Microsoft LifeCam Studio 1080p HD camera and powersoft software (Powersoft Co., Ltd., Hong Kong, China) are used to record videos. Supersys software is used to analyze the latent time (s), average swimming speed (cm/s) and the times of entering the EC zone for the first time.
# GSH = GSH level in brain tissue of zebrafish; conditions: food with 25, 50, 100 mg/kg for 20 days; AlCl3 intraperitoneally; brain supernatant; FIG. 3A
# Experimental: as §1
# as §2, with “In addition, brain samples and supernatant of peripheral tissues of zebrafish are used to determine the levels of IL-1β and TNF-α. The results are expressed by the activity of AChE per gram of protein and the amount of glutathione per gram of protein.” left out, “model. […]” for “model.”
# AChE = AChE activity in brain tissue of zebrafish; conditions: food with 25, 50, 100 mg/kg for 20 days; AlCl3 intraperitoneally; brain supernatant; FIG. 3B
# Experimental: as §1
# as §2, with “In addition, brain samples and supernatant of peripheral tissues of zebrafish are used to determine the levels of IL-1β and TNF-α. The results are expressed by the activity of AChE per gram of protein and the amount of glutathione per gram of protein.” left out, “model. […]” for “model.”
# TNF-α = assay: Level of inflammatory factor TNF-α in brain tissues of zebrafish; conditions: AlCl3 model, FIGS. 3E-3F
# Experimental: as §1
# as §2, with “In addition, brain samples and supernatant of peripheral tissues of zebrafish are used to determine the levels of IL-1β and TNF-α. The results are expressed by the activity of AChE per gram of protein and the amount of glutathione per gram of protein.” left out, “model. […]” for “model.”
# [1] = tested on: zebrafish intestinal flora; assay: Intestinal flora of zebrafish by 16S V3-V4 sequencing
# Experimental: as §1, §2
# Genomic DNA is extracted from 15 intestinal samples by proteinase K cleavage method, and sent to TinyGene Bio-Tech (ShangHai) Co., Ltd. for sequencing. The selected target gene is 16S V3-V4. According to the requirements of illumina high-throughput sequencing, two-way sequencing is carried out, and the target region and the fusion primer with “5′ linker-barcode-sequencing primer-specific primer-3′” are designed. The fusion primer comprises the following primers: […]
# The library is constructed by a two-step PCR amplification method. First, specific primers (hereinafter described as inner primers) are used to amplify the target fragments, and then gel recovery is carried out on the target fragments. Then, the recovered products are used as templates for secondary PCR amplification (hereinafter described as outer primers for amplification). The purpose of amplification is to add the linker, sequencing primer and barcode needed by illumina platform sequencing to both ends of the target fragment.
# AxyPrepDNA gel recovery kit is used for recovery, FTC-3000™ real-time PCR is used for real-time fluorescence quantification, and then Illumina high-throughput sequencing and bioinformatics analysis are performed. The length of the sequence is 450 bp, and the sequencing result is the original data, and quality of the sequence is evaluated and optimized. Trimmomatic is used for sequence filtering and FLASH for jointing. Then ambiguity, homology and some chimeras generated in PCR are screened by motherur V. 1.39.5, and the optimized sequence for subsequent clustering OTU (operational taxonomic unit) and species information analysis is obtained. Using the software USEARCH, the jointed sequences are clustered into OTU (at 97% similarity level) for later analysis.
# VENN diagram may be used to count the number of common and unique OTU in multiple samples, and may intuitively show the similarity and overlap of OTU numbers of environmental samples. Usually the OTU sample table with a similar level of 97% is selected for analysis.
# Alpha diversity analysis reflects the richness and diversity of communities in the sample, using motheru (http://www.mothur.org/wiki/Schloss SOP#Alpha diversity) to calculate shannon, simpson, chao and ace indices, and using R (3.4.1) language tool to make charts. […]
# [2] = phylum level, oral, AlCl3 model
structure (smiles),measurement,setting,value
COC(=O)[C@@]1(Cc2ccc(O)c(CC=C(C)C)c2)OC(=O)C(O)=C1c1ccc(O)cc1 [butyrolactone-I],level of inflammatory factor IL-1β in the brain of zebrafish,"IL-1β; brain, AlCl3 model, FIG. 3C",reduce the level
same,nerve inflammation of zebrafish caused by aluminum trichloride,IL-1β; overall conclusion of biochemical indexes,obviously improve
same,level of inflammatory factor IL-1β in peripheral tissues of zebrafish,"IL-1β; peripheral tissues, AlCl3 model, FIG. 3D",reduce the level
same,latent time for zebrafish to find the EC zone,"zebrafish; food with 25, 50, 100 mg/kg butyrolactone-I for 20 days, AlCl3 intraperitoneally, T maze 24 hours after injection, FIG. 1A",shorten the latent time
same,average swimming speed of zebrafish,"zebrafish; food with 25, 50, 100 mg/kg for 20 days, AlCl3 intraperitoneally, T maze, FIG. 1B",increase the average swimming speed
same,number of times that zebrafish enter the eutrophic EC zone,"zebrafish; food with 25, 50, 100 mg/kg for 20 days, AlCl3 intraperitoneally, T maze, FIG. 1C",add the number of times
same,lingering time of zebrafish in EC area,"zebrafish; food with 25, 50, 100 mg/kg for 20 days, AlCl3 intraperitoneally, T maze, FIGS. 2A-2E",prolong the lingering time
same,memory and cognitive disorder of zebrafish caused by aluminum trichloride,zebrafish; overall conclusion of T maze test,obviously improve
same,GSH level in brain tissue of zebrafish,GSH,increase GSH level in brain tissue of zebrafish in a dose-dependent manner
same,AChE activity in brain tissue of zebrafish,AChE,inhibit AChE activity
same,level of inflammatory factor TNF-α in brain tissues of zebrafish,TNF-α,reduce the level
same,abundance of Alpinimonas,"[1]; genus level, oral, AlCl3 model",down-regulate
same,abundance of Bacillus,"[1]; genus level, oral, AlCl3 model",up-regulate
same,abundance of Bosea,"[1]; genus level, oral, AlCl3 model",down-regulate
same,abundance of Cetobacterium,"[1]; genus level, oral, AlCl3 model",down-regulate
same,abundance of Mycobacterium,"[1]; genus level, oral, AlCl3 model",down-regulate
same,abundance of Phreatobacter,"[1]; genus level, oral, AlCl3 model",down-regulate
same,abundance of Singulisphaera,"[1]; genus level, oral, AlCl3 model",down-regulate
same,disturbance of zebrafish intestinal flora caused by aluminum trichloride,[1]; overall conclusion,regulate the disturbance
same,abundance of Chlamydiae,[1]; [2],down-regulate
same,abundance of Chloroflexi,[1]; [2],down-regulate
same,abundance of Fusobacterium,[1]; [2],down-regulate
same,abundance of Planctomycetes,[1]; [2],down-regulate
same,abundance of Phylum Firmicutes,"[1]; phylum level, oral, AlCl3 model, FIGS. 4A-4B",up-regulate
